Test results as given in article PMC9828493, “Design, Synthesis, and in Vitro Evaluation of 4‐(4‐Hydroxyphenyl)piperazine‐Based Compounds Targeting Tyrosinase” (Chemmedchem, 2022).
Read-outs that look alike come from different tables or passages of the source.

Experiments:
[1] = target: T1, TYR from Agaricus bisporus (AbTYR) (Agaricus bisporus, UniProt C7FF04); set-up: purchased Sigma Chemical Co. (St. Louis, MO, USA); settings: previous paper; read-out: IC50, inhibition of AbTYR; cited from earlier work
[2] = positive control; read-out: EC50 [μM], antioxidant activity (ABTS); cited from earlier work
[3] = target: T1, TYR from Agaricus bisporus (AbTYR); experiment: Kinetic analysis of AbTYR inhibition (Lineweaver-Burk plots, L-DOPA); settings: L-DOPA 0.6–5 mM, three inhibitor concentrations, phosphate buffer pH 6.8
Protocol: Kinetics studies were performed in presence of three different concentrations of selected inhibitors, L‐DOPA (0.6–5 mM) and AbTYR in phosphate buffer (0.05 M, pH 6.8).
(§1) absorbance was measured after 60 or 1 min of incubation time in the reaction mixture containing
(§2) L-tyrosine or L-DOPA, respectively. The inhibitory activity was expressed as inhibition percentage
(§3) calculated by interpolation of the dose-response curves. Kojic acid [5-hydroxy-2-(hydroxymethyl)-
(§4) 4H-pyran-4-one], a fungal secondary metabolite used as skin whitening agent, was employed as a
(§5) positive standard (10–50 μM). A spectrophotometer (Agilent Cary 60 UV-Vis Spectrophotometer)
(§6) The inhibition kinetics on the tyrosinase were studied using Lineweaver-Burk double reciprocal
(§7) plots. The reaction mixture consisted of four different concentrations of the substrate L-DOPA
(§8) (0.6–5 mM), and mushroom tyrosinase in phosphate buffer (0.05 M, pH 6.8). Three different
(§9) concentrations were used for the analysis. Preincubation and measurement time were the same
(§10) as discussed in mushroom tyrosinase inhibition assay. The Michaelis-Menten constant (Km) and
(§11) maximal velocity (Vmax) of tyrosinase were determined by Lineweaver-Burk plots.

B16F10 cells = experiment: Cell viability assay (MTT); type: cell-based, Murine; settings: 48 h; for cytotoxic effect (MTT): until a concentration of 10 μM
Protocol: Murine melanoma B16F10 cells (CRL‐6475) were cultured as previous reported.[17]
3‐(4,5‐Dimethylthiazol‐2‐yl)‐2,5‐diphenyltetrazolium bromide (MTT) was used to measure the cells viability. Cells were seeded in 96‐well plates for 24 hours with a density of 5x10^3 for well. Cells were then treated for 48 h with compounds (ranging from 4 μM to 100 μM). After incubation at 37 °C and 5 % of CO2, 100 μL of MTT reagent were added to the cells and incubated 3 h at 37 °C. After adding DMSO the absorbance was determined at 560 nm. The amount of living cells in treated samples relative to untreated controls (100 %) provided the cell viability. The mean value and standard deviation (SD) were calculated from triplicate experiments.
different concentrations of compounds (4-100 μM) and their viability was evaluated by MTT assay. Data
represent mean ± SD of triplicate experiments.

[4] = system: tyrosinase activity in α‐MSH‐stimulated B16F10 cells; experiment: Tyrosinase zymography (L-DOPA staining) in α-MSH-stimulated B16F10 cells; type: cell-based, Murine; settings: Mus musculus, B16-F10, α-MSH (100 nM)-stimulated B16F10 cells, 48 h, read-out: inhibition of tyrosinase activity / melanogenesis
Protocol: ImageJ software was used to determine the intensity of bands.
A day after seeding the B16F10 cells (6×10^4 cells/mL) the culture medium was substituted by fresh one supplemented with 100 nM α‐MSH.
After incubation for 48 h, cells were washed and lysed using phosphate buffer (25 mM, pH 6.8) containing Triton X‐100 (1 %) and phenylmethyl‐sulfonyl fluoride (0.1 mM). Cellular lysates were centrifugated at 13000 rpm for 20 min at 4 °C. The protein content was determined by Bradford method and BSA was used as standard.
SDS‐polyacrylamide gel electrophoresis was used to resolve the protein extracts previously mixed with 10 mM Tris‐HCl buffer, pH 7.0, containing 1 % SDS, without mercaptoethanol.
After running, gel was rinsed in phosphate buffer (0.1 M, pH 7.0) and equilibrated for 30 min twice. […] Tyrosinase activity was visualized in the gel as dark melanin‐containing bands

[5] = ABTS radical scavenging antioxidant assay; settings: mean ± SD of three independent experiments
Protocol: ABTS [2,20‐azinobis‐(3‐ethylbenzothiazoline‐6‐sulfonic acid)] assay was used to determine the total free radical‐scavenging capacity of compounds. 6‐hydroxy‐2,5,7,8‐tetramethylchromane‐2‐carboxylic acid (Trolox) was used as the reference antioxidant.[15]
The ABTS⋅^+ method is based on the capacity of an antioxidant to scavenge the free ABTS⋅^+. To produce this radical an aqueous mixture of 7 mM ABTS with 2.45 mM potassium persulfate was required.
The ABTS solution was kept in the dark, at room temperature, for 24 h before use. The ABTS⋅^+ mixture was diluted, and each compound (10 μL) was added to solution. After 1 min of incubation the absorbance was recorded at 734 nm. Afterwards the decrease in A734 was calculated and referred to the Trolox standard curve. Antioxidant activity was expressed as concentration of the compound to give a 50 % reduction in the original absorbance (EC50).

[6] = target: T1, TYR from Agaricus bisporus (AbTYR); experiment: Inhibition of monophenolase activity of AbTYR (L-Tyr as substrate); type: biochemical; set-up: purchased Sigma Chemical Co. (St. Louis, MO, USA); settings: 40 μM (Figure S69)
Protocol: Mushroom tyrosinase inhibition assay
6.8). […] Subsequently, 0.05 mL of
L-tyrosine or L-DOPA, respectively.
respect to control sample.
positive standard (10–50 μM).
was used for absorbance measurements.
Kinetic analysis of the tyrosinase inhibition

[7] = target: T1, TYR from Agaricus bisporus (AbTYR); experiment: Inhibition of diphenolase activity of AbTYR (L-DOPA as substrate); settings: for IC50: IC50 [μM]±SD, inhibition of diphenolase activity of AbTYR, L-DOPA substrate, three replicates;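 for all read-outs here: absorbance measured spectrophotometrically with L-DOPA as substrate, inhibition expressed as percent relative to control sample, IC50 interpolated from dose-response curves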
Protocol: as §1, §2, §3, §4, §5, §6, §7, §8, §9, §10, §11

T1 sequence (C7FF04 1-392 limits assumed): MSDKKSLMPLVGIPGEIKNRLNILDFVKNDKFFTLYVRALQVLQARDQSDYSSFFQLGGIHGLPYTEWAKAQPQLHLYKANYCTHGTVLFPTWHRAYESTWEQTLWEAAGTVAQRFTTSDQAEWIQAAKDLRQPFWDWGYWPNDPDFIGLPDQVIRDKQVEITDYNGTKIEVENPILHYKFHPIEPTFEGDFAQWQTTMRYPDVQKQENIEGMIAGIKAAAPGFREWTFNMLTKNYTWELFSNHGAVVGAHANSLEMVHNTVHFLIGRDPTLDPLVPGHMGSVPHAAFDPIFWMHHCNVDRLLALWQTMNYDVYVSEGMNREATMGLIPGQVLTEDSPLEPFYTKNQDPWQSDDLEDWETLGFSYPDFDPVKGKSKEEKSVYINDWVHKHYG

Structure (SMILES)	mechanism of inhibition of AbTYR [3]	cytotoxic effect (MTT) (B16F10 cells)	EC50 [5]	inhibitory effect on monophenolase activity of AbTYR [6]	IC50 [7]	other results
O=C(CN1CCC(Cc2ccccc2)CC1)N1CCN(c2ccc(O)cc2)CC1 [A, 2‐(4‐benzyl‐1‐piperidinyl)‐1‐[4‐(4‐hydroxyphenyl)piperazin‐1‐yl]ethenone]	–	–	–	–	–	IC50 [1]: 3.8 µM
Cc1c(C)c2c(c(C)c1O)CCC(C)(C(=O)O)O2 (stereo not drawn) [Trolox, 6‐hydroxy‐2,5,7,8‐tetramethylchromane‐2‐carboxylic acid]	–	–	–	–	–	EC50 [2]: 13 ± 1.1 µM
O=C(c1ccc(Cl)cc1Cl)N1CCN(c2ccc(O)cc2)CC1 [compound 10, (4‐(4‐Hydroxyphenyl)piperazin‐1‐yl)(2,4‐dichlorophenyl)methanone]	competitive inhibitors	no cytotoxic effect	9 ± 0.3 µM	active inhibitors	1.5 ± 0.1 µM	cell viability (MTT) (B16F10 cells; until 25 μM): good cell viability; inhibition at 1 µM ([4]; 1 μM): 44%; inhibition at 10 µM ([4]; 10 μM): 73%; inhibition at 25 µM ([4]; 25 μM): 88%; melting point: 177 to 178 °C
COc1ccccc1C(=O)N1CCN(c2ccc(O)cc2)CC1 [compound 21, [4‐(4‐Hydroxyphenyl)piperazin‐1‐yl](2‐methoxyphenyl)methanone]	competitive inhibitors	no cytotoxic effect	9.2 ± 0.2 µM	active inhibitors	3.5 ± 0.2 µM	fold more potent than reference compound KA [7]: about 3.5 fold
